Source: patent US8741875B2, “Compounds as receptor modulators with therapeutic utility” (Allergan, Inc., priority 2009, dated 2014)
pEC50: −log10 of the molar value.

What was measured:
human S1P1 receptor = molecular target: T1, human S1P1 receptor (Homo sapiens, UniProt P21453); experiment: GTP γ35S binding assay for S1P1 activity; format: biochemical; settings: membranes, 30 min at 25° C., read-out: S1P1 EC50 (Activity potency: S1P1 receptor from GTP γ35S)
T1 construct: expressed in transfected cells; membranes used
T1 sequence (P21453 whole entry): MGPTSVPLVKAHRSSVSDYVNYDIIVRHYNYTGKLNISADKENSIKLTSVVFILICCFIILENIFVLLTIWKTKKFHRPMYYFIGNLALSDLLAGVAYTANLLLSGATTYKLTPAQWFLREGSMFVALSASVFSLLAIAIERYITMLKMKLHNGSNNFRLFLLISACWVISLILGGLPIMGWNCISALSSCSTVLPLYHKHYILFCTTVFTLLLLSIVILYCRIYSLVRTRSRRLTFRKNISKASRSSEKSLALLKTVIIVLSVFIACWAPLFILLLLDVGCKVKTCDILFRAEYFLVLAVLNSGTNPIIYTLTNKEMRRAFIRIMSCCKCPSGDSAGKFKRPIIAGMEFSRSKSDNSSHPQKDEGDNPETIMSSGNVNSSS
Protocol: Compounds were tested for S1P1 activity using the GTP γ^35S binding assay. These compounds may be assessed for their ability to activate or block activation of the human S1P1 receptor in cells stably expressing the S1P1 receptor.
GTP γ^35S binding was measured in the medium containing (mM) HEPES 25, pH 7.4, MgCl2 10, NaCl 100, dithitothreitol 0.5, digitonin 0.003%, 0.2 nM GTP γ^35S, and 5 μg membrane protein in a volume of 150 μl. Test compounds were included in the concentration range from 0.08 to 5,000 nM unless indicated otherwise. Membranes were incubated with 100 μM 5′-adenylylimmidodiphosphate for 30 min, and subsequently with 10 μM GDP for 10 min on ice. Drug solutions and membrane were mixed, and then reactions were initiated by adding GTP γ^35S and continued for 30 min at 25° C. Reaction mixtures were filtered over Whatman GF/B filters under vacuum, and washed three times with 3 mL of ice-cold buffer (HEPES 25, pH7.4, MgCl2 10 and NaCl 100). Filters were dried and mixed with scintillant, and counted for ^35S activity using a β-counter. Agonist-induced GTP γ^35S binding was obtained by subtracting that in the absence of agonist. Binding data were analyzed using a non-linear regression method. In case of antagonist assay, the reaction mixture contained 10 nM S1P in the presence of test antagonist at concentrations ranging from 0.08 to 5000 nM.

blood lymphocytes = experiment: Lymphopenia Assay in Mice (blood lymphocyte depletion); format: in vivo, female C57BL6 mice; settings: FIG. 1
Protocol: A lymphopenia assay in mice; as previously described, was employed to measure the in vivo blood lymphocyte depletion after dosing with the test compound: [3-({4-[(5-phenylpentyl)oxy]-3-(2-thienyl)benzyl}amino)propyl]phosphonic acid Compound 6. This S1P1 modulator, [3-({4-[(5-phenylpentyl)oxy]-3-(2-thienyl)benzyl}amino)propyl]phosphonic acid Compound 6 is useful for S1P-related diseases and exemplified by the lymphopenia in vivo response.
Test drugs, were prepared in a solution containing 3% (w/v) 2-hydroxy propyl β-cyclodextrin (HPBCD) and 1% DMSO to a final concentration of 1 mg/ml, and subcutaneously injected to female C57BL6 mice (CHARLES RIVERS) weighing 20-25 g at the dose of 10 mg/Kg. Blood samples were obtained by puncturing the submandibular skin with a Goldenrod animal lancet at different time intervals such as: 24, 48, 72 (and 96 h) post drug application. Blood was collected into microvettes (SARSTEDT) containing EDTA tripotassium salt. Lymphocytes in blood samples were counted using a HEMAVET Multispecies Hematology System, HEMAVET HV950FS (Drew Scientific Inc.). (Hale, J. et al Bioorg. & Med. Chem. Lett. 14 (2004) 3351

pEC50 (human S1P1 receptor)	Structure (SMILES)	Lymphopenia (blood lymphocytes; 10 mg/kg in mice (24, 48, 72 Hours))	lymphocyte count (number of lymphocytes) (blood lymphocytes; mice, 10 mg/Kg subcutaneously, after 24 hours)
8.89	O=P(O)(O)CCCNCc1ccc(OCCCCCc2ccccc2)c(-c2cccs2)c1 [Compound 6, [3-({4-[(5-phenylpentyl)oxy]-3-(2-thienyl)benzyl}amino)propyl]phosphonic acid]	induced	< 1 10^3/μL blood
8.15	COc1ccc(CCCCCOc2ccc(CNCCCP(=O)(O)O)cc2-c2ccco2)cc1F [Compound 27, (3-{[4-{[5-(3-fluoro-4-methoxyphenyl)pentyl]oxy}-3-(2-furyl)benzyl]amino}propyl)phosphonic acid]	–	–
7.79	CC(NCCCP(=O)(O)O)c1ccc(OCCCCCc2ccccc2)c(-c2cccs2)c1 (stereo not shown) [Compound 42, {3-[(1-{4-[(5-phenylpentyl)oxy]-3-(2-thienyl)phenyl}ethyl)amino]propyl}phosphonic acid]	–	–
8.47	O=P(O)(O)CCCNCc1ccc(OCCCCCc2ccccc2)c(C2=CCCC2)c1 [Compound 8, [3-({3-cyclopent-1-en-1-yl-4-[(5-phenylpentyl)oxy]benzyl}amino)propyl]phosphonic acid]	–	–
8.15	COc1ccc(CCCCCOc2ccc(CNCCCP(=O)(O)O)cc2-c2ccco2)cc1 [Compound 33, (3-{[3-(2-furyl)-4-{[5-(4-methoxyphenyl)pentyl]oxy}benzyl]amino}propyl)phosphonic acid]	–	–
6.62	CC(CO)NCc1ccc(OCCCCCc2ccccc2)c(-c2cccs2)c1 (stereo not shown) [Compound 12, 2-({4-[(5-phenylpentyl)oxy]-3-(2-thienyl)benzyl}amino)propan-1-ol]	–	–
8.00	O=S(=O)(O)CCCNCc1ccc(OCCCCCc2ccccc2)c(-c2cccs2)c1 [Compound 10, 3-({4-[(5-phenylpentyl)oxy]-3-(2-thienyl)benzyl}amino)propane-1-sulfonic acid]	–	–
7.27	O=P(O)(O)CCCNCc1ccc(OCCCCCc2ccccc2)c(-c2cocn2)c1 [Compound 35, [3-({3-(1,3-oxazol-4-yl)-4-[(5-phenylpentyl)oxy]benzyl}amino)propyl]phosphonic acid]	–	–
7.46	Cc1cccc(CCCCCOc2ccc(CNCCCP(=O)(O)O)cc2-c2ccco2)c1 [Compound 40, (3-{[3-(2-furyl)-4-{[5-(3-methylphenyl)pentyl]oxy}benzyl]amino}propyl)phosphonic acid]	–	–
8.77	[2H]C([2H])(CCCCc1ccccc1)Oc1ccc(CNCCCP(=O)(O)O)cc1-c1ccco1 [Compound 45, [3-({3-(2-furyl)-4-[(5-phenylpentyl)oxy]benzyl}amino)propyl]phosphonic acid-d_2—]	–	–
7.27	O=P(O)(O)C(F)(F)CCNCc1ccc(OCCCCCc2ccccc2)c(-c2ccc(F)o2)c1 [Compound 41, [1,1-difluoro-3-({3-(5-fluoro-2-furyl)-4-[(5-phenylpentyl)oxy]benzyl}amino)propyl]phosphonic acid]	–	–
> 7.60	O=P(O)(O)CCCNCc1ccc(OCCCCCc2ccccc2F)c(-c2ccoc2)c1 [Compound 50, (3-{[4-{[5-(2-fluorophenyl)pentyl]oxy}-3-(3-furyl)benzyl]amino}propyl)phosphonic acid]	–	–
8.72	COc1ccc(CCCCCOc2ccc(CNCCCP(=O)(O)O)cc2-c2cccs2)cc1F [Compound 28, (3-{[4-{[5-(3-fluoro-4-methoxyphenyl)pentyl]oxy}-3-(2-thienyl)benzyl]amino}propyl)phosphonic acid]	–	–
9.11	O=P(O)(O)CCCNCc1ccc(OCCCCCc2ccccc2)c(-c2cccs2)n1 [Compound 15, {3-[({5-[(5-phenylpentyl)oxy]-6-(2-thienyl)pyridin-2-yl}methyl)amino]propyl}phosphonic acid]	–	–
